Patent US11707454B2, “Topical roflumilast formulation having antifungal properties” (ARCUTIS BIOTHERAPEUTICS, INC., priority 2020, dated 2023)
In brackets after ≈: the same amount, converted by molar mass. Like-named read-outs stand apart in the source and are kept apart here.

Experiments:
Type in all cases: cell-based
Candida species = test: in vitro micro-dilution susceptibility assay, summary; conditions: method of Rojas
Experimental: (§1) The in vitro susceptibility of Malassezia species to roflumilast was determined utilizing three Candida species as internal control isolates for all testing. These three isolates were C. albicans American Type Culture Collection (ATCC) 90028, C. krusei (ATCC 6258) and C. parapsilosis (ATCC 22019). In addition to testing roflumilast all susceptibility assays were conducted using ketoconazole and hydrocortisone as positive and negative control compounds, respectively. All assays were placed within a humidified incubator set to 32° C. for a total of seven days. Each assay was evaluated after 12 hours of incubation and, every 24 hours post incubation for a total of seven days. The assays were evaluated for visual growth of each pathogen in the no treatment control as well as determination of minimum inhibition concentration (MIC) values. The concentration that provides a 3-log10 CFU/mL reduction in fungal burden from baseline at day 0 was defined as the minimum fungicidal concentration (MHC) and was determined by quantifying fungal burdens found in the microplate at day seven. […]

Malassezia species = test: as above; conditions: compared to the hydrocortisone negative control
Experimental: as §1

[1] = system: C. parapsilosis (ATCC 22019); test: in vitro micro-dilution susceptibility assay (method of Rojas); conditions: Lodderomyces parapsilosis, C. parapsilosis (22019), read-out: minimum inhibition concentration (MIC)
Experimental: (§2) The in vitro susceptibility of Malassezia species to roflumilast was determined utilizing three Candida species as internal control isolates for all testing. These three isolates were C. albicans American Type Culture Collection (ATCC) 90028, C. krusei (ATCC 6258) and C. parapsilosis (ATCC 22019). In addition to testing roflumilast all susceptibility assays were conducted using ketoconazole and hydrocortisone as positive and negative control compounds, respectively. All assays were placed within a humidified incubator set to 32° C. for a total of seven days. Each assay was evaluated after 12 hours of incubation and, every 24 hours post incubation for a total of seven days. The assays were evaluated for visual growth of each pathogen in the no treatment control as well as determination of minimum inhibition concentration (MIC) values. The concentration that provides a 3-log10 CFU/mL reduction in fungal burden from baseline at day 0 was defined as the minimum fungicidal concentration (MHC) and was determined by quantifying fungal burdens found in the microplate at day seven.
(§3) The method of Rojas (Rojas F D, et al. Antifungal susceptibility of Malassezia furfur, Malassezia sympodialis, and Malassezia globose to azole drugs and amphotericin B evaluated using a broth microdilution method. 2014. Medical Mycology. 52:641-646) was used in which the liquid broth medium was RPMI 1640 with added 1.8% glucose, 1% peptone, 0.5% ox-bile, 0.5% malt extract, 1% glycerol, 0.5% Tween 40 and 0.05% Tween 80. Round bottom 96 well microplates were used. The inoculums were prepared in sterile saline and diluted to a final targeted concentration of 0.5×10^5 to 2.5×10^5 CFU/mL in supplemented RPMI. […] For the internal control isolate C. parapsilosis (ATCC 22019) the expected CLSI values for ketoconazole of 0.03-0.25 (at 24 hours) and 0.06-0.5 (at 48 hours) did agree with the 2-day value (Table A) of 0.5.

M. furfur (ATCC 14521) = test: as above
Experimental: as §2, §3

C. krusei (ATCC 6258) = test: as above; conditions: Pichia kudriavzevii, read-out: minimum inhibition concentration (MIC)
Experimental: as §2, §3

C. albicans (ATCC 90028) = test: as above; conditions: Candida albicans, read-out: minimum inhibition concentration (MIC)
Experimental: as §2, §3

[2] = system: M. globose (ATCC MYA-4889); test: as above; conditions: for MIC: read-out: minimum inhibition concentration (MIC)
Experimental: as §2, §3

M. furfur (ATCC 44344) = test: as above; conditions: for MIC: Malassezia furfur, read-out: minimum inhibition concentration (MIC)
Experimental: as §2, §3

[3] = system: M. restricta (ATCC MYA-4611); test: as above; conditions: for MIC: read-out: minimum inhibition concentration (MIC)
Experimental: as §2, §3

M. furfur (ATCC 12078) = test: as above; conditions: for MIC: Malassezia furfur, read-out: minimum inhibition concentration (MIC)
Experimental: as §2, §3

## O=C(Nc1c(Cl)cncc1Cl)c1ccc(OC(F)F)c(OCC2CC2)c1 [Roflumilast, N-(3,5-dichloropyrid-4-yl)-3-cyclopropylmethoxy-4-difluoromethoxybenzamid-e]
Candida species
  antifungal activity against the tested Candida species: did not demonstrate antifungal activity
Malassezia species
  antifungal activity against Malassezia species: provides antifungal activity against Malassezia species
[1]; ATCC22019, 12 h, Time 0.5 days
  MIC: 1020 mg/L (≈ 2540 µM)
[1]; ATCC22019, 24 h, Time 1 days
  MIC: 1020 mg/L (≈ 2540 µM)
[1]; ATCC22019, 48 h, Time 2 days
  MIC: > 1020 mg/L
[1]; ATCC22019, 72 h, Time 3 days
  MIC: > 1020 mg/L
[1]; ATCC22019, 96 h, Time 4 days
  MIC: > 1020 mg/L
[1]; ATCC22019, 120 h, Time 5 days
  MIC: > 1020 mg/L
[1]; ATCC22019, 144 h, Time 6 days
  MIC: > 1020 mg/L
[1]; ATCC22019, 168 h, Time 7 days
  MIC: > 1020 mg/L
M. furfur (ATCC 14521); Time 0.5 days
  minimum inhibition concentration (MIC): NGO
M. furfur (ATCC 14521); Time 1 days
  minimum inhibition concentration (MIC): NGO
C. krusei (ATCC 6258); ATCC6258, 12 h, Time 0.5 days
  MIC: 128 mg/L (≈ 317 µM)
C. krusei (ATCC 6258); ATCC6258, 24 h, Time 1 days
  MIC: 1020 mg/L (≈ 2540 µM)
C. krusei (ATCC 6258); ATCC6258, 48 h, Time 2 days
  MIC: > 1020 mg/L
C. krusei (ATCC 6258); ATCC6258, 72 h, Time 3 days
  MIC: > 1020 mg/L
C. krusei (ATCC 6258); ATCC6258, 96 h, Time 4 days
  MIC: > 1020 mg/L
C. krusei (ATCC 6258); ATCC6258, 120 h, Time 5 days
  MIC: > 1020 mg/L
C. krusei (ATCC 6258); ATCC6258, 144 h, Time 6 days
  MIC: > 1020 mg/L
C. krusei (ATCC 6258); ATCC6258, 168 h, Time 7 days
  MIC: > 1020 mg/L
C. albicans (ATCC 90028); ATCC90028, 12 h, Time 0.5 days
  MIC: > 1020 mg/L
C. albicans (ATCC 90028); ATCC90028, 24 h, Time 1 days
  MIC: > 1020 mg/L
C. albicans (ATCC 90028); ATCC90028, 48 h, Time 2 days
  MIC: > 1020 mg/L
C. albicans (ATCC 90028); ATCC90028, 72 h, Time 3 days
  MIC: > 1020 mg/L
C. albicans (ATCC 90028); ATCC90028, 96 h, Time 4 days
  MIC: > 1020 mg/L
C. albicans (ATCC 90028); ATCC90028, 120 h, Time 5 days
  MIC: > 1020 mg/L
C. albicans (ATCC 90028); ATCC90028, 144 h, Time 6 days
  MIC: > 1020 mg/L
C. albicans (ATCC 90028); ATCC90028, 168 h, Time 7 days
  MIC: > 1020 mg/L
[2]; 48 h, Time 2 days
  MIC: 32 mg/L (≈ 79.4 µM)
[2]; 72 h, Time 3 days
  MIC: 32 mg/L (≈ 79.4 µM)
[2]; 96 h, Time 4 days
  MIC: 128 mg/L (≈ 317 µM)
[2]; 120 h, Time 5 days
  MIC: 128 mg/L (≈ 317 µM)
[2]; 144 h, Time 6 days
  MIC: 128 mg/L (≈ 317 µM)
[2]; 168 h, Time 7 days
  MIC: 128 mg/L (≈ 317 µM)
[2]; Time 0.5 days
  minimum inhibition concentration (MIC): NGO
[2]; Time 1 days
  minimum inhibition concentration (MIC): NGO
M. furfur (ATCC 44344); ATCC44344, 48 h, Time 2 days
  MIC: 64 mg/L (≈ 159 µM)
M. furfur (ATCC 44344); ATCC44344, 72 h, Time 3 days
  MIC: 64 mg/L (≈ 159 µM)
M. furfur (ATCC 44344); ATCC44344, 96 h, Time 4 days
  MIC: 64 mg/L (≈ 159 µM)
M. furfur (ATCC 44344); ATCC44344, 120 h, Time 5 days
  MIC: 64 mg/L (≈ 159 µM)
M. furfur (ATCC 44344); ATCC44344, 144 h, Time 6 days
  MIC: 64 mg/L (≈ 159 µM)
M. furfur (ATCC 44344); ATCC44344, 168 h, Time 7 days
  MIC: 64 mg/L (≈ 159 µM)
M. furfur (ATCC 44344); Time 0.5 days
  minimum inhibition concentration (MIC): NGO
M. furfur (ATCC 44344); Time 1 days
  minimum inhibition concentration (MIC): NGO
[3]; 48 h, Time 2 days
  MIC: 32 mg/L (≈ 79.4 µM)
[3]; 72 h, Time 3 days
  MIC: 32 mg/L (≈ 79.4 µM)
[3]; 96 h, Time 4 days
  MIC: 32 mg/L (≈ 79.4 µM)
[3]; 120 h, Time 5 days
  MIC: 32 mg/L (≈ 79.4 µM)
[3]; 144 h, Time 6 days
  MIC: 32 mg/L (≈ 79.4 µM)
[3]; 168 h, Time 7 days
  MIC: 64 mg/L (≈ 159 µM)
[3]; Time 0.5 days
  minimum inhibition concentration (MIC): NGO
[3]; Time 1 days
  minimum inhibition concentration (MIC): NGO
M. furfur (ATCC 12078); ATCC12078, 48 h, Time 2 days
  MIC: 128 mg/L (≈ 317 µM)
M. furfur (ATCC 12078); ATCC12078, 72 h, Time 3 days
  MIC: 128 mg/L (≈ 317 µM)
M. furfur (ATCC 12078); ATCC12078, 96 h, Time 4 days
  MIC: 128 mg/L (≈ 317 µM)
M. furfur (ATCC 12078); ATCC12078, 120 h, Time 5 days
  MIC: 128 mg/L (≈ 317 µM)
M. furfur (ATCC 12078); ATCC12078, 144 h, Time 6 days
  MIC: 128 mg/L (≈ 317 µM)
M. furfur (ATCC 12078); ATCC12078, 168 h, Time 7 days
  MIC: 128 mg/L (≈ 317 µM)
M. furfur (ATCC 12078); Time 0.5 days
  minimum inhibition concentration (MIC): NGO
M. furfur (ATCC 12078); Time 1 days
  minimum inhibition concentration (MIC): NGO
